Assay results as given in ChEMBL document CHEMBL1146277, “The discovery of 6-[2-(5-chloro-2-{[(2,4-difluorophenyl)methyl]oxy}phenyl)-1-cyclopenten-1-yl]-2-pyridinecarboxylic acid, GW848687X, a potent and selective prostaglandin EP1 receptor antagonist for the treatment of inflammatory pain” (Bioorg Med Chem Lett, 2007).

Biological target: T1, Prostaglandin E2 receptor EP3 subtype (Homo sapiens, UniProt P43115)
T1 sequence (P43115 whole entry): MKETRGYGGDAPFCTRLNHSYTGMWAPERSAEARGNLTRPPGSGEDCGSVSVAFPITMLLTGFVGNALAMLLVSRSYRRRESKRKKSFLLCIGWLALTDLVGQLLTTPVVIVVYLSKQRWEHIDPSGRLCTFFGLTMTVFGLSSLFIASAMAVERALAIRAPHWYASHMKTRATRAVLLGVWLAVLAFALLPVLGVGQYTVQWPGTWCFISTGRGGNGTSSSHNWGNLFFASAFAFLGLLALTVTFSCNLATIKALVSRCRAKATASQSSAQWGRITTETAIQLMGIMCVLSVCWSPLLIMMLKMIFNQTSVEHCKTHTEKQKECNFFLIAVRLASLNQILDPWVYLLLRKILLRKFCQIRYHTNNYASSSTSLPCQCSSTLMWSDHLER
Test: Inhibition of human EP3 receptor
Conditions: not given

Row | IC50 [µM] | Structure (SMILES)
1 | > 3.16 | CSc1ccc(OCc2ccc(F)cc2F)c(C2=C(c3cccc(C(=O)O)c3)CCC2)c1
2 | > 3.16 | O=C(O)c1cccc(C2=C(c3ccccc3OCc3ccc(Cl)c(Cl)c3)CCC2)c1
3 | > 3.16 | O=C(O)c1cccc(C2=C(c3ccccc3OCc3ccccc3)CCC2)c1
4 | > 3.16 | O=C(O)c1cccc(C2=C(c3cc(Br)ccc3OCc3ccc(Cl)c(Cl)c3)CCC2)c1
5 | > 3.16 | COc1ccc(COc2ccc(Br)cc2C2=C(c3cccc(C(=O)O)c3)CCC2)cc1
6 | > 3.16 | CS(=O)(=O)c1ccc(OCc2ccc(F)cc2)c(C2=C(c3cccc(C(=O)O)c3)CCC2)c1
7 | > 3.16 | N#Cc1ccc(OCc2ccccc2)c(C2=C(c3cccc(C(=O)O)c3)CCC2)c1
8 | > 3.16 | O=C(O)c1cccc(C2=C(c3ccccc3OCc3ccc(Cl)cc3F)CCC2)c1
9 | > 3.16 | CSc1ccc(OCc2ccccc2)c(C2=C(c3cccc(C(=O)O)c3)CCC2)c1
10 | > 3.16 | COc1ccc(COc2ccccc2C2=C(c3cccc(C(=O)O)c3)CCC2)cc1
11 | > 3.16 | O=C(O)c1cccc(C2=C(c3ccccc3OCc3ccc(F)cc3F)CCC2)c1
12 | > 3.16 | O=C(O)c1cccc(C2=C(c3cc(Cl)ccc3OCc3ccccc3)CCC2)c1
13 | > 3.16 | O=C(O)c1cccc(C2=C(c3cc(Br)ccc3OCc3ccc(Cl)cc3F)CCC2)c1

Tested on: not listed separately
Test: Lipophilicity, log D of the compound
Format: physicochemical
Conditions: octanol/water

Row | logD | Structure (SMILES)
14 | 1.2 | O=C(O)c1cc(C2=C(c3cc(Cl)ccc3OCc3ccccc3)CCC2)ncn1
15 | 0.8 | O=C(O)c1ccnc(C2=C(c3cc(Cl)ccc3OCc3ccccc3)CCC2)n1

Biological target: T2, Prostaglandin E2 receptor EP1 subtype (Homo sapiens, UniProt P34995)
T2 sequence (P34995 whole entry): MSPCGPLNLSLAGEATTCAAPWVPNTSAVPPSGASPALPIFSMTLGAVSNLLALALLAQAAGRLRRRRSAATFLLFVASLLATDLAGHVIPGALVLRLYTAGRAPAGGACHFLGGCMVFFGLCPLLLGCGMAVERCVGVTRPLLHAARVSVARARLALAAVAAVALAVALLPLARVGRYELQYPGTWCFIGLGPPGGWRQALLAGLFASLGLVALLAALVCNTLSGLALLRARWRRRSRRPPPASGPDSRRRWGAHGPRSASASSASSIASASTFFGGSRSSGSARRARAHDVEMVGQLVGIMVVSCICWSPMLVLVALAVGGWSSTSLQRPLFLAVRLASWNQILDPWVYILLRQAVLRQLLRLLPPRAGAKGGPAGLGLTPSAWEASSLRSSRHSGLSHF
Test: Inhibition of human EP1 receptor
Conditions: not given

Row | IC50 [nM] | Structure (SMILES)
16 | 39.8 | O=C(O)c1cc(C2=C(c3cc(Cl)ccc3OCc3ccccc3)CCC2)cnn1
17 | 15.8 | CSc1ccc(OCc2ccc(F)cc2F)c(C2=C(c3cccc(C(=O)O)c3)CCC2)c1
18 | 398 | O=C(O)c1cccc(C2=C(c3ccccc3OCc3ccc(Cl)c(Cl)c3)CCC2)c1
19 | 200 | O=C(O)c1cc(C2=C(c3cc(Cl)ccc3OCc3ccccc3)CCC2)ncn1
20 | 6.31 | O=C(O)c1cccc(C2=C(c3ccccc3OCc3ccccc3)CCC2)c1
21 | 100 | O=C(O)c1cccc(C2=C(c3cc(Br)ccc3OCc3ccc(Cl)c(Cl)c3)CCC2)c1
22 | 39.8 | COc1ccc(COc2ccc(Br)cc2C2=C(c3cccc(C(=O)O)c3)CCC2)cc1
23 | 79.4 | CS(=O)(=O)c1ccc(OCc2ccc(F)cc2)c(C2=C(c3cccc(C(=O)O)c3)CCC2)c1
24 | 100 | N#Cc1ccc(OCc2ccccc2)c(C2=C(c3cccc(C(=O)O)c3)CCC2)c1
25 | 50.1 | O=C(O)c1cccc(C2=C(c3ccccc3OCc3ccc(Cl)cc3F)CCC2)c1
26 | 63.1 | CSc1ccc(OCc2ccccc2)c(C2=C(c3cccc(C(=O)O)c3)CCC2)c1
27 | 100 | COc1ccc(COc2ccccc2C2=C(c3cccc(C(=O)O)c3)CCC2)cc1
28 | 39.8 | O=C(O)c1cc(C2=C(c3cc(C(F)(F)F)ccc3OCc3ccccc3)CCC2)ccn1
29 | 25.1 | O=C(O)c1cccc(C2=C(c3ccccc3OCc3ccc(F)cc3F)CCC2)c1
30 | 5.01 | O=C(O)c1cccc(C2=C(c3cc(Cl)ccc3OCc3ccccc3)CCC2)c1
31 | 158 | O=C(O)c1ccnc(C2=C(c3cc(Cl)ccc3OCc3ccccc3)CCC2)n1
32 | 2.51 | O=C(O)c1cccc(C2=C(c3cc(Br)ccc3OCc3ccc(Cl)cc3F)CCC2)c1
